The values that follow come from patent US9982016B2, “NPR-B agonists” (priority 2009, dated 2018).

Molecules are shown by their SMILES. Like-named read-outs stand apart in the source and are kept apart here. Numbered stars: 1 amine (or outer) side, 2 acyl side, 3 side chain; on linkers, the order of the positions; unused ones are H or OH. Square brackets hold non-standard residues; d marks the D form. Peptide text beside a SMILES is read from it. * marks the point of attachment. Pro(4R-NH2) = N[C@H]1CN[C@H](C(=O)O)C1; X2 = O=C([C@H]1CCCN([*:1])C1)[*:2]; NMeR = CN[C@@H](CCCNC(=N)N)C(=O)O; X1 = CCCCCCCCN1CCC[C@H](C(=O)*)C1; dDap(Me2) = CN(C)C[C@@H](N)C(=O)O; Hyp = O=C(O)[C@@H]1C[C@@H](O)CN1; NMeF = CN[C@@H](Cc1ccccc1)C(=O)O; NMeL = CN[C@@H](CC(C)C)C(=O)O; Octanoyl = CCCCCCCC(=O)*

Assay [1] concerns human colon adenocarcinoma cells. To be noted: 1 mM, within 24 h; cited from earlier work.
Assay [2] deals with human renal carcinoma cells. The following applies: 100 μM; cited from earlier work.
Another assay concerns chondrocytes. The following applies: low doses 10 to 100 pM, at the highest dose; cited from earlier work.
The next assay concerns the target T1, NPR-B (Homo sapiens, UniProt P20594).
T1 construct: endogenously NPR-B expressing GTM-3 cells; endogenous in cells; host or cells: GTM-3 (human glaucoma trabecular meshwork cells)
T1 sequence (P20594 23-1047): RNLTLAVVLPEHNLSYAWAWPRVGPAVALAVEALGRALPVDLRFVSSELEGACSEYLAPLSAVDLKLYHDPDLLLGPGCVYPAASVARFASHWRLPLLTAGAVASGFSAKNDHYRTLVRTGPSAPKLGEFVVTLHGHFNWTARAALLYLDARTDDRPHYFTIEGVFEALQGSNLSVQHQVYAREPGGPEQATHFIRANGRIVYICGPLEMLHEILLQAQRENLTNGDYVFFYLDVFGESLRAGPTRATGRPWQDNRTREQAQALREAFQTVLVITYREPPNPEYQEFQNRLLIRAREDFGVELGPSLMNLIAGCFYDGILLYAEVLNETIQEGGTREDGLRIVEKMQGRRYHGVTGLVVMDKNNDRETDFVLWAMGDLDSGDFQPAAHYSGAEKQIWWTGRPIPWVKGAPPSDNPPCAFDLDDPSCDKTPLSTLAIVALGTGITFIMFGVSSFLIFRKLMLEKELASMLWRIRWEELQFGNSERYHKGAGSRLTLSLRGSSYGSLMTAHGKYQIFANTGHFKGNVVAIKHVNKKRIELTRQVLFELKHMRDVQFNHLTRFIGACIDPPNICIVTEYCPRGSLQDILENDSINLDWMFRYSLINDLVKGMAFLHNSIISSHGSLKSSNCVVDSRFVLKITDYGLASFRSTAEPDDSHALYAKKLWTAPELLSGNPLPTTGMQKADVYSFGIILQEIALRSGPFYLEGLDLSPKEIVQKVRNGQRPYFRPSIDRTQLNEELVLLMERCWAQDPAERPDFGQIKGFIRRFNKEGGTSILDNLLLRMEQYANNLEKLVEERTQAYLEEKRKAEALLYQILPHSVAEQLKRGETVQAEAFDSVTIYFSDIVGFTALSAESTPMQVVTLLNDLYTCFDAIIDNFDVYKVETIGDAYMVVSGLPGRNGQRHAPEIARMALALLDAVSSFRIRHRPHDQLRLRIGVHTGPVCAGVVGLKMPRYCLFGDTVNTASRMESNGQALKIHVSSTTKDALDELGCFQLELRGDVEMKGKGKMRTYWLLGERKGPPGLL
Description: NPR-B induced production of cyclic GMP in human glaucoma trabecular meshwork cells (GTM-3). The class given is cell-based.

Where [3] appears, read: NPR-B activation in GTM-3 cells, group set by EC50 and Emax (CNP = 100%), read-out: Activity (group).

For the compound `CC[C@H](C)[C@@H]1NC(=O)[C@H](CCCNC(=N)N)NC(=O)[C@H](CC(=O)O)NC(=O)[C@H](CCSC)NC(=O)[C@H](CCCNC(=N)N)NC(=O)CNC(=O)CNC(=O)[C@H](Cc2ccccc2)NC(=O)[C@@H](NC(=O)[C@H](CO)NC(=O)[C@H](CO)NC(=O)[C@H](CCCNC(=N)N)NC(=O)[C@H](CCCNC(=N)N)NC(=O)[C@H](CC(C)C)NC(=O)[C@@H](N)CO)CSSC[C@@H](C(=O)N[C@@H](CC(N)=O)C(=O)N[C@@H](CO)C(=O)N[C@@H](Cc2ccccc2)C(=O)N[C@@H](CCCNC(=N)N)C(=O)N[C@@H](Cc2ccc(O)cc2)C(=O)O)NC(=O)CNC(=O)[C@H](CC(C)C)NC(=O)CNC(=O)[C@H](CO)NC(=O)[C@H](CCC(N)=O)NC(=O)[C@H](C)NC(=O)CNC1=O` [ANP, atrial natriuretic peptide], in assay [1], the “decrease in cell number” value is given as “up to 97%”.

For the compound `CC[C@H](C)[C@@H]1NC(=O)[C@H](CCCNC(=N)N)NC(=O)[C@H](CC(=O)O)NC(=O)[C@H](CC(C)C)NC(=O)[C@H](CCCCN)NC(=O)[C@H](CC(C)C)NC(=O)CNC(=O)[C@H](Cc2ccccc2)NC(=O)[C@@H](NC(=O)CNC(=O)[C@H](CCCCN)NC(=O)[C@H](CO)NC(=O)[C@H](CC(C)C)NC(=O)CN)CSSC[C@@H](C(=O)O)NC(=O)CNC(=O)[C@H](CC(C)C)NC(=O)CNC(=O)[C@H](CO)NC(=O)[C@H](CCSC)NC(=O)[C@H](CO)NC(=O)CNC1=O` [CNP, C-type natriuretic peptide], in assay [2], the “decrease in cell number” value is 10%. Further, the “increase in cellularity (chondrocyte proliferation)” value in the assay on chondrocytes is on record as “up to 43%”.

Consider `CCCCCCCCN1CCC[C@H](C(=O)N[C@@H](Cc2ccccc2)C(=O)N[C@H](CN(C)C)C(=O)N[C@@H](CC(C)C)C(=O)N2C[C@H](N)C[C@H]2C(=O)N(C)[C@@H](CC(C)C)C(=O)N[C@@H](CC(=O)O)C(=O)N[C@@H](CCCNC(=N)N)C(=O)N[C@H](C(N)=O)[C@@H](C)CC)C1` [JAL-1369, Oct-Sni-Phe-dap(Me2)-Leu-Tap-Nml-Asp-Arg-Ile-NH2] (X1-F[dDap(Me2)]L[Pro(4R-NH2)][NMeL]DRI-NH2), for which the EC50 at NPR-B (setting [3]) was less than 1000 nM.

Take `CCCCCCCCN1CCC[C@H](C(=O)N[C@@H](Cc2ccccc2)C(=O)N[C@H](CN(C)C)C(=O)N[C@@H](CC(C)C)C(=O)N2C[C@H](O)C[C@H]2C(=O)N(C)[C@@H](CC(C)C)C(=O)N[C@@H](CC(=O)O)C(=O)N[C@@H](CCCNC(=N)N)C(=O)N[C@H](C(N)=O)[C@@H](C)CC)C1` [JAL-1429, Oct-Sni-Phe-dap(Me2)-Leu-Hyp-Nml-Asp-Arg-Ile-NH2] (HELM PEPTIDE1{[CCCCCCCCN1CCC[C@H](C(=O)[*:2])C1].F.[CN(C)C[C@@H](N[*:1])C(=O)[*:2]].L.[Hyp].[meL].D.R.I.[am]}$$$$V2.0): the EC50 at NPR-B (setting [3]) is less than 1000 nM.

Take `CCCCCCCC(=O)N[C@H](C)C(=O)N[C@@H](Cc1ccccc1)C(=O)N[C@H](CC(C)C)C(=O)N[C@@H](CC(C)C)C(=O)N1C[C@H](O)C[C@H]1C(=O)N(C)[C@@H](CC(C)C)C(=O)N[C@@H](C(=O)N[C@@H](CCCNC(=N)N)C(=O)N[C@H](C(N)=O)[C@@H](C)CC)c1cccs1` [JAL-1558, Occ-ala-Phe-leu-Leu-Hyp-Nml-(BB727)-Arg-Ile-NH2] (HELM PEPTIDE1{[CCCCCCCC(=O)[*:2]].[dA].F.[dL].L.[Hyp].[meL].[O=C([C@H](N[*:1])c1cccs1)[*:2]].R.I.[am]}$$$$V2.0): the EC50 at NPR-B (setting [3]) was less than 1000 nM. Take `CCCCCCCC(=O)N1CCC[C@H](C(=O)N[C@@H](Cc2ccccc2)C(=O)N[C@H](CN(C)C)C(=O)N[C@@H](CC(C)C)C(=O)N2C[C@H](O)C[C@H]2C(=O)N(C)[C@@H](CC(C)C)C(=O)N[C@@H](CC(=O)O)C(=O)N(C)[C@@H](CCCNC(=N)N)C(=O)N[C@H](C(N)=O)[C@@H](C)CC)C1` [JAL-1576, Occ-Sni-Phe-dap(Me2)-Leu-Hyp-Nml-Asp-Nmr-Ile-NH2] (Octanoyl-[X2]F[dDap(Me2)]L[Hyp][NMeL]D[NMeR]I-NH2): the EC50 at NPR-B (setting [3]) is less than 1000 nM. Still for that read-out and setting: in the case of `CCCCCCCC(=O)N1CCC[C@H](C(=O)N(C)[C@@H](Cc2ccccc2)C(=O)N[C@H](CN(C)C)C(=O)N[C@@H](CC(C)C)C(=O)N2C[C@H](O)C[C@H]2C(=O)N(C)[C@@H](CC(C)C)C(=O)N[C@@H](CC(=O)O)C(=O)N[C@@H](CCCNC(=N)N)C(=O)N[C@H](C(N)=O)[C@@H](C)CC)C1` [JAL-1579, Occ-Sni-Nmf-dap(Me2)-Leu-Hyp-Nml-Asp-Arg-Ile-NH2] (Octanoyl-[X2][NMeF][dDap(Me2)]L[Hyp][NMeL]DRI-NH2) it was less than 1000 nM; in that of `CCCCCCCC(=O)N1CCC[C@H](C(=O)N[C@@H](Cc2ccccc2)C(=O)N[C@H](CN(C)C)C(=O)N[C@@H](CC(C)C)C(=O)N2C[C@H](O)C[C@H]2C(=O)N(C)[C@@H](CC(C)C)C(=O)N[C@@H](CC(=O)O)C(=O)N2CCC[C@H]2C(=O)N[C@H](C(N)=O)[C@@H](C)CC)C1` [JAL-1580, Occ-Sni-Phe-dap(Me2)-Leu-Hyp-Nml-Asp-Pro-Ile-NH2] (Octanoyl-[X2]F[dDap(Me2)]L[Hyp][NMeL]DPI-NH2), less than 1000 nM.

Take `CC[C@H](C)[C@@H]1NC(=O)[C@H](CCCNC(=N)N)NC(=O)[C@H](CC(=O)O)NC(=O)[C@H](CCSC)NC(=O)[C@H](CCCNC(=N)N)NC(=O)CNC(=O)CNC(=O)[C@H](Cc2ccccc2)NC(=O)[C@H](Cc2c[nH]cn2)NC(=O)[C@@H](NC(=O)[C@@H](N)CCSC)CSSC[C@@H](C(=O)N[C@@H](Cc2ccc(O)cc2)C(=O)N[C@@H](CCCNC(=N)N)C(N)=O)NC(=O)[C@H](CO)NC1=O` [mini-ANP, reference compound] (HELM PEPTIDE1{M.C.H.F.G.G.R.M.D.R.I.S.C.Y.R.[am]}$PEPTIDE1,PEPTIDE1,2:R3-13:R3$$$V2.0): the EC50 on NPR-B (GTM-3 cells, 4-Parameter Logistic Equation, highest concentration 45 μM, FIG. 2, read-out: EC50, cyclic GMP production in GTM-3 cells) was greater than 45000 nM.
